SMILES strings stand for the structures. Substitutions are numbered along the chain they refer to.

One test concerns the target T1, human WT TYK2 (Homo sapiens, UniProt P29597).
T1 construct: His-tagged recombinant human TYK2, mouse TYK2, and human TYK2 I960V mutant kinase domains were expressed in insect cell/baculovirus systems; His; made in house; host or cells: insect cell/baculovirus
T1 sequence (P29597 897-1176 limits assumed): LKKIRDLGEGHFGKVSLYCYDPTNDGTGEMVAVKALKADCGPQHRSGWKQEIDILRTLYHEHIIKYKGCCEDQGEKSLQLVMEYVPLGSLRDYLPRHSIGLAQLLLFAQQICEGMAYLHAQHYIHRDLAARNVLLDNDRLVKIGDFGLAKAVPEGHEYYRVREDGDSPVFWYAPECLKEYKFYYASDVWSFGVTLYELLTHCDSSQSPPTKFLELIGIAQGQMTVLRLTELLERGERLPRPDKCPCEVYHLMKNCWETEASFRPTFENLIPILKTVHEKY
The test is described as follows: JAK Caliper enzyme end-point IC50 assay, human WT TYK2. Format: biochemical. Conditions: ATP 1 mM; geometric mean ± SD.
On to `CCNC(=O)c1ccc(Nc2ncc(C)c(N3C[C@H]4C[C@@H]3CN4S(C)(=O)=O)n2)cc1` [Compound 15], for which the IC50 was 371 ± 37 nM.
On the same count and under the same terms, the same measure for `CCNC(=O)c1ncc(Nc2ncc(F)c(N3C[C@H]4CC[C@@H](C3)N4CCC#N)n2)cc1C` [Compound 17]: 46 ± 11 nM; for `CCNC(=O)c1ncc(Nc2ncc(Cl)c(N3C[C@H]4C[C@@]4(NC(=O)C4CC4)C3)n2)cc1C` [Compound 18]: 35 ± 34 nM.
Same read-out and setting: the result for `CCNC(=O)c1ccc(Nc2nccc(N3C[C@H]4C[C@@H](C3)N4C(=O)C(F)(F)F)n2)cc1` [Compound 16] reads 135 ± 89 nM; that for `Cn1cc(Nc2ncc(Cl)c(N3C[C@H]4CC[C@@H](C3)N4C(=O)[C@@H]3CC3(F)F)n2)cn1` [Compound 29], 8 ± 4 nM.
On the same count and under the same terms, the result for `Cc1cnc(Nc2cnn(C)c2)nc1N1C[C@H]2[C@@H](C)[C@@]2(NC(=O)C2CC2)C1` [Compound 21] reads 50 ± 46 nM; that for `Cc1cnc(Nc2cnn(CCO)c2)nc1N1CC2C[C@@]2(NC(=O)C2CC2)C1` (some centres unmarked) [Compound 20], 67 ± 21 nM; that for `Cc1cnc(Nc2cnn(C)c2)nc1N1C[C@H]2CC[C@@H](C1)N2C(=O)[C@@H]1CC1(F)F` [Compound 28], 15 ± 6 nM.
`Cn1cc(Nc2ncc(F)c(N3C[C@H]4C[C@@]4(NC(=O)[C@@H]4CC4(F)F)C3)n2)cn1` [Compound 26] registered an IC50 of 38 ± 8 nM.
The same measure, in the same setting: the same measure for `Cn1cc(Nc2nccc(N3C[C@H]4CC[C@@H](C3)N4CCC#N)n2)cn1` [Compound 22]: 73 ± 18 nM; for `CNC(=O)c1ncc(Nc2nccc(N3C[C@H]4C[C@@]4(NC(=O)C4CC4)C3)n2)cc1C` [Compound 19]: 208 ± 51 nM.
The same measure, in the same setting: the result for `C[C@@H]1C2CN(c3nc(Nc4cn[nH]c4)ncc3F)C[C@@]21NC(=O)[C@H]1CC1(F)F` (some centres unmarked) [Compound 23] reads 13 ± 4 nM.

In another test the target is T2, mouse WT TYK2 (Mus musculus, UniProt Q9R117).
T2 construct: His-tagged recombinant human TYK2, mouse TYK2, and human TYK2 I960V mutant kinase domains were expressed in insect cell/baculovirus systems; His; made in house; host or cells: insect cell/baculovirus
T2 sequence (Q9R117 894-1166 limits assumed): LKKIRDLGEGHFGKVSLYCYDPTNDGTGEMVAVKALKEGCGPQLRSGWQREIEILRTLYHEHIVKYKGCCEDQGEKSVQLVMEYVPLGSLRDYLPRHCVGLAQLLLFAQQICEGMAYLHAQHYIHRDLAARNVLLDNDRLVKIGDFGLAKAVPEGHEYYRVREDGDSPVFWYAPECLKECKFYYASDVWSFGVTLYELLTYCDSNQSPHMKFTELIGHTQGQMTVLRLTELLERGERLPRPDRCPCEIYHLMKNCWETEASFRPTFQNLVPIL
The experiment in a line: JAK Caliper enzyme end-point IC50 assay, mouse WT TYK2.
Settings: not given
The format is biochemical.
Compound `C[C@@H]1[C@@H]2CN(c3nc(Nc4cnn(C)c4)ncc3F)C[C@]12NC(=O)[C@@H]1CC1(F)F` [PF-06673518] showed an IC50 of 1410 nM.

The same test, now with this note: ATP 1 mM; geometric mean ± SD.
For the compound `CCNC(=O)c1ccc(Nc2ncc(C)c(N3C[C@H]4C[C@@H]3CN4S(C)(=O)=O)n2)cc1` [Compound 15], the IC50 was 5240 ± 605 nM.
The same measure, in the same setting: the same measure for `CCNC(=O)c1ncc(Nc2ncc(F)c(N3C[C@H]4CC[C@@H](C3)N4CCC#N)n2)cc1C` [Compound 17]: 1520 ± 217 nM; for `CCNC(=O)c1ncc(Nc2ncc(Cl)c(N3C[C@H]4C[C@@]4(NC(=O)C4CC4)C3)n2)cc1C` [Compound 18]: 841 ± 989 nM.
In turn, `CCNC(=O)c1ccc(Nc2nccc(N3C[C@H]4C[C@@H](C3)N4C(=O)C(F)(F)F)n2)cc1` [Compound 16] returned an IC50 of 3580 ± 1980 nM.
`Cn1cc(Nc2ncc(Cl)c(N3C[C@H]4CC[C@@H](C3)N4C(=O)[C@@H]3CC3(F)F)n2)cn1` [Compound 29] had an IC50 of 100 ± 17 nM.
For `Cc1cnc(Nc2cnn(C)c2)nc1N1C[C@H]2[C@@H](C)[C@@]2(NC(=O)C2CC2)C1` [Compound 21], the IC50 was 1160 ± 1040 nM.
On the same count and under the same terms, the same measure for `Cc1cnc(Nc2cnn(CCO)c2)nc1N1CC2C[C@@]2(NC(=O)C2CC2)C1` (some centres unmarked) [Compound 20]: 784 ± 207 nM; for `Cc1cnc(Nc2cnn(C)c2)nc1N1C[C@H]2CC[C@@H](C1)N2C(=O)[C@@H]1CC1(F)F` [Compound 28]: 180 ± 89 nM; for `Cn1cc(Nc2ncc(F)c(N3C[C@H]4C[C@@]4(NC(=O)[C@@H]4CC4(F)F)C3)n2)cn1` [Compound 26]: 2120 ± 465 nM.
The same measure, in the same setting: the result for `Cn1cc(Nc2nccc(N3C[C@H]4CC[C@@H](C3)N4CCC#N)n2)cn1` [Compound 22] reads 1330 ± 396 nM.
`CNC(=O)c1ncc(Nc2nccc(N3C[C@H]4C[C@@]4(NC(=O)C4CC4)C3)n2)cc1C` [Compound 19] registered an IC50 of 8160 ± 2030 nM.
For the compound `C[C@@H]1C2CN(c3nc(Nc4cn[nH]c4)ncc3F)C[C@@]21NC(=O)[C@H]1CC1(F)F` (some centres unmarked) [Compound 23], the IC50 is 466 ± 78 nM.

The next test concerns IL-12 (TYK2/JAK2) induced pSTAT4. The experiment in a line: Phospho-STAT inhibition in lymphocytes, IL-12, human. The format is cell-based. The settings on record: Homo sapiens, Leukocyte, read-out: IL-12 (TYK2/JAK2) induced pSTAT4 IC50, Human WT, human leukocytes, no serum or other proteins; geomean ± SD, four experiments.
`C[C@@H]1[C@@H]2CN(c3nc(Nc4cnn(C)c4)ncc3F)C[C@]12NC(=O)[C@@H]1CC1(F)F` [PF-06673518]: the IC50 came to 64 nM.

The same test, now with this note: read-out: IL-12 (TYK2/JAK2) induced pSTAT4 IC50, Human WT; human leukocytes, no serum or other proteins; geomean ± SD, four experiments.
On to `C[C@@H]1[C@@H]2CN(c3nc(Nc4cnn(C)c4)ncc3F)C[C@]12NC(=O)[C@@H]1CC1(F)F` [PF-06673518], for which the IC50 came out at 64.3 ± 10 nM.

The next test has the same test system. The test is described as follows: Phospho-STAT inhibition in lymphocytes, IL-12, mouse WT. Conditions: Leukocyte, read-out: IL-12 (TYK2/JAK2) induced pSTAT4 IC50, Mouse WT. Format: cell-based, mouse (C57BL/6).
Consider `C[C@@H]1[C@@H]2CN(c3nc(Nc4cnn(C)c4)ncc3F)C[C@]12NC(=O)[C@@H]1CC1(F)F` [PF-06673518], for which the IC50 is 518 ± 84 nM.

In another test the test system is IL-15 (JAK1/JAK3) induced pSTAT5. The test is described as follows: Phospho-STAT inhibition in lymphocytes, IL-15, human. The format is cell-based. Conditions: Leukocyte, read-out: IL-15 (JAK1/JAK3) induced pSTAT5 IC50, Human WT.
With `C[C@@H]1[C@@H]2CN(c3nc(Nc4cnn(C)c4)ncc3F)C[C@]12NC(=O)[C@@H]1CC1(F)F` [PF-06673518], the IC50 came to 135 ± 15 nM.

Another test has the same test system. The test is described as follows: Phospho-STAT inhibition in lymphocytes, IL-15, mouse WT. The format is cell-based, mouse (C57BL/6). Conditions: Leukocyte, read-out: IL-15 (JAK1/JAK3) induced pSTAT5 IC50, Mouse WT.
Take `C[C@@H]1[C@@H]2CN(c3nc(Nc4cnn(C)c4)ncc3F)C[C@]12NC(=O)[C@@H]1CC1(F)F` [PF-06673518]: the IC50 was 127 ± 6.7 nM.

In another test the test system is IL-12 (TYK2/JAK2) induced pSTAT4. The test is described as follows: Phospho-STAT inhibition in lymphocytes, IL-12, mouse V980I knock-in. The format is cell-based, mouse (C57BL/6 TYK2 V980I knock-in). Conditions: Lymphocyte, read-out: IL-12 (TYK2/JAK2) induced pSTAT4 IC50, Mouse V980I KI.
On to `C[C@@H]1[C@@H]2CN(c3nc(Nc4cnn(C)c4)ncc3F)C[C@]12NC(=O)[C@@H]1CC1(F)F` [PF-06673518], for which the IC50 was determined as 128 ± 11 nM.

The test system is the same in the next test. The experiment in a line: Phospho-STAT inhibition in lymphocytes, IL-12, dog. The format is cell-based, dog (Beagle). Conditions: Canis lupus familiaris, Leukocyte, read-out: IL-12 (TYK2/JAK2) induced pSTAT4 IC50, Dog WT.
For the compound `C[C@@H]1[C@@H]2CN(c3nc(Nc4cnn(C)c4)ncc3F)C[C@]12NC(=O)[C@@H]1CC1(F)F` [PF-06673518], the IC50 was determined as 679 ± 254 nM.

For a further test the test system is unchanged. The experiment in a line: Phospho-STAT inhibition in lymphocytes, IL-12, monkey. The settings on record: Primates, Leukocyte, read-out: IL-12 (TYK2/JAK2) induced pSTAT4 IC50, Monkey WT. Format: cell-based, monkey (cynomolgus).
Consider `C[C@@H]1[C@@H]2CN(c3nc(Nc4cnn(C)c4)ncc3F)C[C@]12NC(=O)[C@@H]1CC1(F)F` [PF-06673518], for which the IC50 came out at 527 ± 147 nM.

Another test relates to IL-12/IL-18 induced IFNγ production. The test is described as follows: PK/PD IL-12/18 induced interferonγ production model, wild type mice. The settings on record: Mus musculus, 4 h, read-out: IC50 (IC50,u) for inhibition of IL-12/IL-18-induced IFNγ production. The format is in vivo, C57BL/6 wild type mice.
Consider `C[C@@H]1[C@@H]2CN(c3nc(Nc4cnn(C)c4)ncc3F)C[C@]12NC(=O)[C@@H]1CC1(F)F` [PF-06673518], for which the IC50 is 1280 nM.

Another test shares this test system. The test is described as follows: PK/PD IL-12/18 induced interferonγ production model, TYK2 V980I mice. Format: in vivo, C57BL/6 TYK2 V980I mice. Conditions: Mus musculus, 4 h, read-out: IC50 (IC50,u) for inhibition of IL-12/IL-18-induced IFNγ production.
On to `C[C@@H]1[C@@H]2CN(c3nc(Nc4cnn(C)c4)ncc3F)C[C@]12NC(=O)[C@@H]1CC1(F)F` [PF-06673518], for which the IC50 worked out at 26.6 nM.

The next test has as its target T3, human TYK2 I960V mutant (Homo sapiens, UniProt P29597, I960V).
T3 sequence (P29597 897-1176 I960V limits assumed): T1 sequence (P29597 897-1176 limits assumed) with I64V
The test is described as follows: JAK Caliper enzyme end-point IC50 assay, human TYK2 I960V mutant. Conditions: read-out: Human TYK2 I960V IC50; ATP 1 mM; geometric mean ± SD.
Consider `CCNC(=O)c1ccc(Nc2ncc(C)c(N3C[C@H]4C[C@@H]3CN4S(C)(=O)=O)n2)cc1` [Compound 15], for which the IC50 is 3590 ± 257 nM.
Same read-out and setting: the result for `CCNC(=O)c1ncc(Nc2ncc(F)c(N3C[C@H]4CC[C@@H](C3)N4CCC#N)n2)cc1C` [Compound 17] reads 1220 ± 220 nM; that for `CCNC(=O)c1ncc(Nc2ncc(Cl)c(N3C[C@H]4C[C@@]4(NC(=O)C4CC4)C3)n2)cc1C` [Compound 18], 538 ± 622 nM; that for `CCNC(=O)c1ccc(Nc2nccc(N3C[C@H]4C[C@@H](C3)N4C(=O)C(F)(F)F)n2)cc1` [Compound 16], 2570 ± 1560 nM.
Still for that read-out and setting: the result for `Cn1cc(Nc2ncc(Cl)c(N3C[C@H]4CC[C@@H](C3)N4C(=O)[C@@H]3CC3(F)F)n2)cn1` [Compound 29] reads 30 ± 1 nM; that for `Cc1cnc(Nc2cnn(C)c2)nc1N1C[C@H]2[C@@H](C)[C@@]2(NC(=O)C2CC2)C1` [Compound 21], 484 ± 369 nM.
On to `Cc1cnc(Nc2cnn(CCO)c2)nc1N1CC2C[C@@]2(NC(=O)C2CC2)C1` (some centres unmarked) [Compound 20], for which the IC50 turned out to be 435 ± 174 nM.
The same measure, in the same setting: the result for `Cc1cnc(Nc2cnn(C)c2)nc1N1C[C@H]2CC[C@@H](C1)N2C(=O)[C@@H]1CC1(F)F` [Compound 28] reads 55 ± 25 nM; that for `Cn1cc(Nc2ncc(F)c(N3C[C@H]4C[C@@]4(NC(=O)[C@@H]4CC4(F)F)C3)n2)cn1` [Compound 26], 1560 ± 257 nM.
Same read-out and setting: the result for `Cn1cc(Nc2nccc(N3C[C@H]4CC[C@@H](C3)N4CCC#N)n2)cn1` [Compound 22] reads 1020 ± 263 nM; that for `CNC(=O)c1ncc(Nc2nccc(N3C[C@H]4C[C@@]4(NC(=O)C4CC4)C3)n2)cc1C` [Compound 19], 7390 ± 1950 nM; that for `C[C@@H]1C2CN(c3nc(Nc4cn[nH]c4)ncc3F)C[C@@]21NC(=O)[C@H]1CC1(F)F` (some centres unmarked) [Compound 23], 388 ± 50 nM.
